Source: US11420962B2, “Indene derivatives useful in treating pain and inflammation” (TARO PHARMACEUTICALS INC., priority 2018, dated 2022)

Key:
Rat DRG = assay: Rat dorsal root ganglion excitability response (EFS, Ca2+ transients); assay type: cell-based; settings: Rattus norvegicus; Table 3; electrical field stimulation, Ca5 indicator; read-out: Scoring (EC50, Rat DRG excitability)
Method: Dorsal root ganglions (DRGs) were dissected from adult rats. The tissue was processed, and cells were seeded into call culture plates (48 center wells of one quadrant in 384-well plates) and cultured for 2 days prior to Electrical field stimulation (EFS). To visualize the neuronal excitability response, intracellular Ca^+2 transients were monitored using the Ca^+2 indicator, Ca5. Ca5 was added to the cultures 1 h prior to EFS. Representative test compounds of the invention (i.e., test compounds) and reference compound, tetracaine, were added in concentration-response format encompassing six concentrations, performed in duplicate. The highest concentration tested was typically 30 μM with 1 in 3 dilutions generating the subsequent concentrations.
Effects on DRG excitability by the test compounds and standard were evaluated using four EFS protocols as disclosed in Table 2.
Experimental results were performed using two separate sets of plates using separate test compound and standard dilutions, to provide n=2. In the first set of experiments, compounds were added 24 h prior to EFS to increase the possibility to also detect more long-term compound effects. In the second set of experiments the compounds were added directly prior to EFS. Excitability response to EFS was analyzed as the average fluorescence ratio (peak/baseline) change per well. All plates were evaluated using high content imaging equipment post-EFS, imaging the Ca5 background staining to detect any possible compound-related toxic effects.
Average response by the standard compound, tetracaine, was 4.05 μM.

[1] = Metabolism by human liver microsomes; assay type: in vitro ADME; settings: Table 8; 10 µM, in the presence of NADPH, 1 mg/mL protein
Method: Representative compounds of the invention (i.e., test compounds) and the positive control, 7-ethoxycoumarin, were prepared as stock solutions at 10 mM in DMSO and eventually diluted to 10 μM in the test plate, with an appropriate amount of acetonitrle and tris HCl buffer. Final DMSO and acetonitrile concentrations were […] and 0.5% respectively. NADPH was prepared in tris HCl buffer to a stock of 10 mM. A frozen aliquot of live microsomes was retrieved from the freezer (−80° C.) and thawed by placing the tube on wet ice. After thawing, the tubes were gently mixed and the required amount, transferred to tris HCl buffer. Test compounds or positive control were pre-incubated, separately, for 10 minutes, with liver microsomes (1 mg/mL protein), at 37° C., in 100 mM Tris HCl at pH 7.5. After preincubation the reaction was started by adding 1 mM NADPH (pre-equilibrated to […]) and the reaction allowed to proceed for 60 minutes. At 60 minutes, a 50 μL aliquot was removed and quenched with 200 uL of acetonitrile containing a mixture of internal standards (Tolbutamide (500 ng/mL) and Telmistartan (500 ng/mL)) and vortexed then centrifuged at 4000 rmp for 10 minutes (Eppendorf 5810R). The supernatant was transferred to a 96 well plate for LC-MS/MS analysis.
An LC-MS/MS method was devised for the test compounds and the control, using a AB Sciex API 4000 system coupled to a NEXAR™ UHPLC (Shimadzu) system. Analytes were separated on a Phenomenex Kinetex C18 column (50×2.1 mm, 5 μm) using a gradient that was appropriate for each compound, at a flow rate of 1 ml/minute, utilizing a mobile phase of 0.1% formic acid in MILLI-Q™ water (A) and 0.1% formic acid in acetonitrile (B). The MS instrument was operated in positive mode (ESI+)/negative (ESI−). The multiple reaction monitoring (MRM) transition for test and control compounds was used for the LC-MS/MS analysis. MRM transitions for control compound 7-ethoxycoumarinm were Quadropole 1: 191.0, Quadropole 3: 163.0, dwell time: 75 msec, using curtain gas settings of 5 V, ion-spray voltage of 5500 V, temperature of 50° C. and gas settings for nebulizer and auxiliary set to 30 and 40 psi, respectively. The interface heater was kept on. Entrance potential and collision cell exit potential were varied to tune for a specific compound.
Using a suitable LC-MS/MS method, the percentage of drug remaining at 60 minutes ([…]) was assessed by comparing the average analyte to internal standard area ratio at 60 minutes to the average analyte to internal standard area ratio at 0 time control, as a percentage, from a 5 to 10 μL sample injection.
According to the above assay, the representative compounds listed in Table 8 below were active in the Human liver microsome assay at […] and the % of drug remaining after 60 minutes (PDR60), in the presence of NADPH, was assessed by LC-MS/MS. Average PDR60 for the standard compound, 7-ethoxycoumarin was <=65% in the presence of NADPH. Scoring for the test compounds, in the presence of NADPH, was as follows: “A” represents a PDR^60 of 81 to 100%, “B” represents a PDR^60 of 61 to 80%, “C” represents a PDR^60 of 31 to 60% and “D” represents a PDR^60 of 0 to 30%.

Row | Structure (SMILES) | Scoring (% of drug remaining after 60 minutes, PDR60) [1] | EC50 (Rat DRG) [µM]
1 | C=C1CC[C@H]2[C@H](CN)[C@@H]([C@@]3(C)Cc4cnn(CC(C)(C)C)c4C[C@@H]3CO)CC[C@]12C [Ia-22, ((5R,6S)-5-((3aS,4R,5S,7aS)-4-(aminomethyl)-7a-methyl-1-methyleneoctahydro-1H-inden-5-yl)-5-methyl-1-neopentyl-4,5,6,7-tetrahydro-1H-indazol-6-yl)methanol] | D (a PDR^60 of 0 to 30%) | 2 to 6
2 | C=C1CC[C@H]2[C@H](CN3CCCCC3)[C@@H]([C@@]3(C)Cc4cn[nH]c4C[C@@H]3CO)CC[C@]12C [Ia-47, ((5R,6S)-5-methyl-5-((3aS,4R,5S,7aS)-7a-methyl-1-methylene-4-(piperidin-1-ylmethyl)octahydro-1H-inden-5-yl)-4,5,6,7-tetrahydro-1H-indazol-6-yl)methanol] | D (a PDR^60 of 0 to 30%) | 6 to 15
3 | CC1(C)CCC2=C1CC[C@H]([C@@]1(C)Cc3cn[nH]c3C[C@@H]1CO)[C@H]2CN [Ia-2, ((5R,6S)-5-((4R,5S)-4-(aminomethyl)-1,1-dimethyl-2,3,4,5,6,7-hexahydro-1H-inden-5-yl)-5-methyl-4,5,6,7-tetrahydro-1H-indazol-6-yl)methanol] | B (a PDR^60 of 61 to 80%) | > 15
4 | C=C1CC[C@H]2[C@H](CN)[C@@H]([C@@]3(C)Cc4cn[nH]c4C[C@@H]3CN3CCOCC3)CC[C@]12C [Ia-76, ((3aS,4R,5S,7aS)-7a-methyl-5-((5R,6S)-5-methyl-6-(morpholinomethyl)-4,5,6,7-tetrahydro-1H-indazo1-5-yl)-1-methyleneoctahydro-1H-inden-4-yl)methanamine] | D (a PDR^60 of 0 to 30%) | 6 to 15
5 | C=C1CC[C@H]2[C@H](CN)[C@@H]([C@@]3(C)Cc4cnn(-c5cccnc5)c4C[C@@H]3CO)CC[C@]12C [Ia-20, ((5R,6S)-5-((3aS,4R,5S,7aS)-4-(aminomethyl)-7a-methyl-1-methyleneoctahydro-1H-inden-5-yl)-5-methyl-1-(pyridin-3-yl)-4,5,6,7-tetrahydro-1H-indazol-6-yl)methanol] | D (a PDR^60 of 0 to 30%) | 6 to 15
6 | C=C1CC[C@H]2[C@H](CN)[C@@H]([C@@]3(C)Cc4cn(-c5ccccn5)nc4C[C@@H]3CO)CC[C@]12C [Ia-11, ((5R,6S)-5-((3aS,4R,5S,7aS)-4-(aminomethyl)-7a-methyl-1-methyleneoctahydro-1H-inden-5-yl)-5-methyl-2-(pyridin-2-yl)-4,5,6,7-tetrahydro-2H-indazol-6-yl)methanol] | B (a PDR^60 of 61 to 80%) | 2 to 6
7 | C=C1CC[C@H]2[C@H](CN)[C@@H]([C@@]3(C)Cc4cnn(C(C)(C)C)c4C[C@@H]3CO)CC[C@]12C [Ia-12, ((5R,6S)-5-((3aS,4R,5S,7aS)-4-(aminomethyl)-7a-methyl-1-methyleneoctahydro-1H-inden-5-yl)-1-(tert-butyl)-5-methyl-4,5,6,7-tetrahydro-1H-indazol-6-yl)methanol] | D (a PDR^60 of 0 to 30%) | 2 to 6
8 | C=C1CC[C@H]2[C@H](CN)[C@@H]([C@@]3(C)Cc4cncnc4C[C@@H]3CO)CC[C@]12C [Ic-3, ((6R,7S)-6-((3aS,4R,5S,7aS)-4-(aminomethyl)-7a-methyl-1-methyleneoctahydro-1H-inden-5-yl)-6-methyl-5,6,7,8-tetrahydroquinazolin-7-yl)methanol] | A (a PDR^60 of 81 to 100%) | > 15

Now from value to molecule, other results behind:

Row | Scoring (% of drug remaining after 60 minutes, PDR60) [1] | Structure (SMILES) | EC50 (Rat DRG) [µM]
9 | D (a PDR^60 of 0 to 30%) | C=C1CC[C@H]2[C@H](CO)[C@@H]([C@@]3(C)Cc4cn[nH]c4C[C@@H]3CN3CCOCC3)CC[C@]12C [Ia-72, ((3aS,4R,5S,7aS)-7a-methyl-5-((5R,6S)-5-methyl-6-(morpholinomethyl)-4,5,6,7-tetrahydro-1H-indazol-5-yl)-1-methyleneoctahydro-1H-inden-4-yl)methanol] | > 15
10 | C (a PDR^60 of 31 to 60%) | C=C1CC[C@H]2[C@H](CN)[C@@H]([C@@]3(C)Cc4cc[nH]c4C[C@@H]3CO)CC[C@]12C [Id-1, ((5R,6S)-5-((3aS,4R,5S,7aS)-4-(aminomethyl)-7a-methyl-1-methyleneoctahydro-1H-inden-5-yl)-5-methyl-4,5,6,7-tetrahydro-1H-indol-6-yl)methanol] | 6 to 15
11 | A (a PDR^60 of 81 to 100%) | C[C@H]1CC[C@H]2[C@H](CN)[C@@H]([C@@]3(C)Cc4cn(-c5ccccc5)nc4C[C@@H]3CO)CC[C@]12C [Ia-36, ((5R,6S)-5-((1S,3aS,4S,5S,7aR)-4-(aminomethyl)-1,7a-dimethyloctahydro-1H-inden-5-yl)-5-methyl-2-phenyl-4,5,6,7-tetrahydro-2H-indazol-6-yl)methanol] | 2 to 6
12 | D (a PDR^60 of 0 to 30%) | C=C1CC[C@H]2[C@H](CN3CCN(C)CC3)[C@@H]([C@@]3(C)Cc4cn[nH]c4C[C@@H]3CO)CC[C@]12C [Ia-48, ((5R,6S)-5-methyl-5-((3aS,4R,5S,7aS)-7a-methyl-1-methylene-4-((4-methylpiperazin-1-yl)methyl)octahydro-1H-inden-5-yl)-4,5,6,7-tetrahydro-1H-indazol-6-yl)methanol] | 6 to 15
13 | B (a PDR^60 of 61 to 80%) | C=C1CC[C@H]2[C@H](CN)[C@@H]([C@@]3(C)Cc4cn(Cc5ccccc5)nc4C[C@@H]3CO)CC[C@]12C [Ia-19, ((5R,6S)-5-((3aS,4R,5S,7aS)-4-(aminomethyl)-7a-methyl-1-methyleneoctahydro-1H-inden-5-yl)-2-benzyl-5-methyl-4,5,6,7-tetrahydro-2H-indazol-6-yl)methanol] | 2 to 6
14 | A (a PDR^60 of 81 to 100%) | C=C1CC[C@H]2[C@H](CN)[C@@H]([C@@]3(C)Cc4cnc(N)nc4C[C@@H]3CO)CC[C@]12C [Ic-1, ((6R,7S)-2-amino-6-((3aS,4R,5S,7aS)-4-(aminomethyl)-7a-methyl-1-methyleneoctahydro-1H-inden-5-yl)-6-methyl-5,6,7,8-tetrahydroquinazolin-7-yl)methanol] | > 15
15 | B (a PDR^60 of 61 to 80%) | C=C1CC[C@H]2[C@H](CO)[C@@H]([C@@]3(C)Cc4cn[nH]c4C[C@@H]3CN)CC[C@]12C [Ia-82, ((3aS,4R,5S,7aS)-5-((5R,6S)-6-(aminomethyl)-5-methyl-4,5,6,7-tetrahydro-1H-indazol-5-yl)-7a-methyl-1-methyleneoctahydro-1H-inden-4-yl)methanol] | 6 to 15
